Measurements from patent publication US20250099684A1, “HYDROGEN PEROXIDE SOLUTION-PREFILLED SYRINGE WITH EXCELLENT HYDROGEN PEROXIDE PRESERVATION DUE TO SILICONE OIL INCLUDED IN OIL COMPOSITION” (KORTUC Inc., priority 2019, published 2025).
Where two headings read alike, the source gives them in different places.

Settings: sealed, stored at 60° C. for 4 weeks, Oxydol "KENEI" 2.5 to 3.5% (w/v) hydrogen peroxide

residual ratio of hydrogen peroxide (glass container coated with the silicone oil (Dow Corning 360 Medical Fluid, 12,500 cSt)): ≥ 78%
residual ratio of hydrogen peroxide (glass container not coated with the silicone oil): about 70%
Compound: OO [hydrogen peroxide]
